Reference: publication PMC6277434, “Discovery of a potent HMG-CoA reductase degrader that eliminates statin-induced reductase accumulation and lowers cholesterol” (Nature Communications, 2018)

molecular target: T1, HMGCR (TM1-8)-GFP (Cricetulus griseus, UniProt P00347); assay: HMGCR (TM1-8)-GFP fluorescent assay (high-content imaging) in CHG cells; settings: 16 h, read-out: HMGCR (TM1-8)-GFP fluorescent intensity, mean
T1 sequence (P00347 1-346): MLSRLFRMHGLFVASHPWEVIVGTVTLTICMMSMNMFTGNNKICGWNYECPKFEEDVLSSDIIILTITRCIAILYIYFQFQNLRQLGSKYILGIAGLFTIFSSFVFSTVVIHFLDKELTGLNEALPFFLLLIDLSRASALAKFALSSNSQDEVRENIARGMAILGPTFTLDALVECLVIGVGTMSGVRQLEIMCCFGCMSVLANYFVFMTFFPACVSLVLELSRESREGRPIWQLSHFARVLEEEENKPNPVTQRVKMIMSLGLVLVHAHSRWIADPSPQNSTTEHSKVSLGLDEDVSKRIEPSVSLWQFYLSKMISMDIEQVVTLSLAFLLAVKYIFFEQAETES

| Structure (SMILES) | remaining activity at 0.01 µM | remaining activity at 0.1 µM | remaining activity at 0.3 µM | remaining activity at 1 µM | remaining activity at 3 µM | remaining activity at 10 µM | remaining activity at 20 µM | remaining activity at 30 µM | remaining activity at 0.03 µM |
| --- | --- | --- | --- | --- | --- | --- | --- | --- | --- |
| CC(C)CCC[C@@H](C)[C@H]1CC[C@H]2[C@@H]3CC=C4C(C)(C)[C@@H](O)CC[C@]4(C)[C@H]3CC[C@]12C [Compound 7, 4,4-Dimethyl cholesterol] | 101% | 104% | 92.8% | 83.5% | 71.9% | 56.7% | 47.9% | 35.9% |  |
| CC(C)CCC[C@@H](C)[C@H]1CCC2C3C(=NO)C=C4C(C)(C)[C@@H](O)CC[C@]4(C)C3CC[C@@]21C (some centres unmarked) [Compound 34] |  | 103% | 93.6% | 75.2% | 65.6% | 62% | 65.8% | 62.1% | 99.1% |
| CC(C)CCC[C@@H](C)[C@H]1CC[C@H]2[C@@H]3[C@@H](O)C=C4C(C)(C)[C@@H](O)CC[C@]4(C)[C@H]3CC[C@]12C [Compound 35, 4,4-Dimethyl 7β-hydroxyl cholesterol] | 100% | 87.1% | 83.8% | 68.2% | 54.5% | 37% | 20% |  | 104% |

same assay, conditions: read-out: Mean (HMGCR (TM1-8)-GFP signal relative to 0 μM = 100)

| Structure (SMILES) | remaining activity at 0.156 µM | remaining activity at 0.313 µM | remaining activity at 0.625 µM | remaining activity at 1.25 µM | remaining activity at 2.5 µM | remaining activity at 5 µM | remaining activity at 10 µM |
| --- | --- | --- | --- | --- | --- | --- | --- |
| COCCCC[C@@H](C)C1CCC2C3C(CC[C@@]21C)[C@@]1(C)CC[C@H](O)C(C)(C)C1=C[C@@H]3O (some centres unmarked) [Compound 78] | 105% | 98% | 81.1% | 60.7% | 36.9% | 21.4% | 15.7% |
| C=CCC(O)(CC=C)CCCCC[C@@H](C)C1CCC2C3C(CC[C@@]21C)[C@@]1(C)CC[C@H](O)C(C)(C)C1=C[C@@H]3O (some centres unmarked) [Compound 119] | 92.9% | 96% | 91.6% | 81.1% | 62.7% | 42.5% | 28.9% |
| CCC(O)(CC)CCCC[C@@H](C)C1CCC2C3C(CC[C@@]21C)[C@@]1(C)CC[C@H](O)C(C)(C)C1=C[C@@H]3O (some centres unmarked) [Compound 101] | 86.6% | 74% | 52.3% | 35.6% | 22.8% | 15.2% | 15.2% |
| CCC(O)(CC)CCCCC[C@@H](C)C1CCC2C3C(CC[C@@]21C)[C@@]1(C)CC[C@H](O)C(C)(C)C1=C[C@@H]3O (some centres unmarked) [Compound 118] | 93.8% | 76.6% | 55.5% | 38.3% | 26.4% | 20.4% | 21.8% |
| C=CCC(O)CCC[C@@H](C)C1CCC2C3C(CC[C@@]21C)[C@@]1(C)CC[C@H](O)C(C)(C)C1=C[C@@H]3O (some centres unmarked) [Compound 88] | 82.3% | 75.6% | 67.9% | 37.1% | 17.6% | 12% | 16.6% |
| C[C@H](CCCC(C)(C)O)C1CCC2C3C(CC[C@@]21C)[C@@]1(C)CC[C@H](O)C(C)(C)C1=C[C@@H]3O (some centres unmarked) [Compound 79] | 87.9% | 77.2% | 59.3% | 38.6% | 23.5% | 16.1% | 12.2% |
| CCC(O)(CC)CC[C@@H](C)C1CCC2C3C(CC[C@@]21C)[C@@]1(C)CC[C@H](O)C(C)(C)C1=C[C@@H]3O (some centres unmarked) [Compound 57] | 96.7% | 90.2% | 75.6% | 53.1% | 36.2% | 26% | 23.7% |
| CCC(O)CCC[C@@H](C)C1CCC2C3C(CC[C@@]21C)[C@@]1(C)CC[C@H](O)C(C)(C)C1=C[C@@H]3O (some centres unmarked) [Compound 87] | 91.3% | 78.3% | 62.1% | 43.1% | 26.7% | 20.1% | 18.9% |
| C[C@H](CCC(C)(C)O)C1CCC2C3C(CC[C@@]21C)[C@@]1(C)CC[C@H](O)C(C)(C)C1=C[C@@H]3O (some centres unmarked) [Compound 56] | 88.3% | 94.2% | 92.2% | 79.4% | 78.7% | 72.2% | 69.4% |
| COCCC[C@@H](C)C1CCC2C3C(CC[C@@]21C)[C@@]1(C)CC[C@H](O)C(C)(C)C1=C[C@@H]3O (some centres unmarked) [Compound 55] | 100% | 100% | 83% | 63.8% | 43.1% | 28.5% | 21.9% |
| CC(O)CCCCC[C@@H](C)C1CCC2C3C(CC[C@@]21C)[C@@]1(C)CC[C@H](O)C(C)(C)C1=C[C@@H]3O (some centres unmarked) [Compound 124] | 88% | 78.3% | 62.2% | 38.2% | 19.5% | 14.7% | 21.8% |
| CC(O)CCCC[C@@H](C)C1CCC2C3C(CC[C@@]21C)[C@@]1(C)CC[C@H](O)C(C)(C)C1=C[C@@H]3O (some centres unmarked) [Compound 107] | 90.7% | 83.1% | 72.6% | 51.8% | 26.9% | 17.1% | 13.1% |
| COC(=O)CCC[C@@H](C)C1CCC2C3C(CC[C@@]21C)[C@@]1(C)CC[C@H](O)C(C)(C)C1=C[C@@H]3O (some centres unmarked) [Compound 72] | 109% | 104% | 96.6% | 89.7% | 77.5% | 56.3% | 40.9% |
| C[C@H](CCCCC(=O)O)C1CCC2C3C(CC[C@@]21C)[C@@]1(C)CC[C@H](O)C(C)(C)C1=C[C@@H]3O (some centres unmarked) [Compound 92] | 104% | 98.4% | 98.7% | 96.3% | 87% | 71.8% | 58% |
| CCC(O)CC[C@@H](C)C1CCC2C3C(CC[C@@]21C)[C@@]1(C)CC[C@H](O)C(C)(C)C1=C[C@@H]3O (some centres unmarked) [Compound 64] | 100% | 104% | 88.2% | 68.2% | 52.2% | 35.6% | 27% |
| C=CCC(O)(CC=C)CCCC[C@@H](C)C1CCC2C3C(CC[C@@]21C)[C@@]1(C)CC[C@H](O)C(C)(C)C1=C[C@@H]3O (some centres unmarked) [Compound 102] | 108% | 104% | 86.9% | 56.5% | 37.2% | 31.7% | 31.8% |
| C=CCC(O)CCCC[C@@H](C)C1CCC2C3C(CC[C@@]21C)[C@@]1(C)CC[C@H](O)C(C)(C)C1=C[C@@H]3O (some centres unmarked) [Compound 109] | 91% | 76.5% | 54.8% | 36.4% | 23.5% | 18.8% | 25.2% |
| CCC(O)(CC)CCC[C@@H](C)C1CCC2C3C(CC[C@@]21C)[C@@]1(C)CC[C@H](O)C(C)(C)C1=C[C@@H]3O (some centres unmarked) [Compound 80] | 85.3% | 75.8% | 58.1% | 33.7% | 18.3% | 12.1% | 10.3% |
| C[C@H](CCCCCC(C)(C)O)C1CCC2C3C(CC[C@@]21C)[C@@]1(C)CC[C@H](O)C(C)(C)C1=C[C@@H]3O (some centres unmarked) [Compound 117] | 92% | 72.4% | 47.7% | 29.5% | 20.4% | 16.1% | 20.4% |

molecular target: T1, HMGCR (TM1-8)-GFP; assay: not given; settings: not given

| Structure (SMILES) | DC50 |
| --- | --- |
| COCCCC[C@@H](C)C1CCC2C3C(CC[C@@]21C)[C@@]1(C)CC[C@H](O)C(C)(C)C1=C[C@@H]3O (some centres unmarked) [Compound 78] | 1850 nM |
| C=CCC(O)(CC=C)CCCCC[C@@H](C)C1CCC2C3C(CC[C@@]21C)[C@@]1(C)CC[C@H](O)C(C)(C)C1=C[C@@H]3O (some centres unmarked) [Compound 119] | 4130 nM |
| CCC(O)(CC)CCCC[C@@H](C)C1CCC2C3C(CC[C@@]21C)[C@@]1(C)CC[C@H](O)C(C)(C)C1=C[C@@H]3O (some centres unmarked) [Compound 101] | 590 nM |
| CCC(O)(CC)CCCCC[C@@H](C)C1CCC2C3C(CC[C@@]21C)[C@@]1(C)CC[C@H](O)C(C)(C)C1=C[C@@H]3O (some centres unmarked) [Compound 118] | 970 nM |
| C=CCC(O)CCC[C@@H](C)C1CCC2C3C(CC[C@@]21C)[C@@]1(C)CC[C@H](O)C(C)(C)C1=C[C@@H]3O (some centres unmarked) [Compound 88] | 910 nM |
| C[C@H](CCCC(C)(C)O)C1CCC2C3C(CC[C@@]21C)[C@@]1(C)CC[C@H](O)C(C)(C)C1=C[C@@H]3O (some centres unmarked) [Compound 79] | 640 nM |
| CCC(O)(CC)CC[C@@H](C)C1CCC2C3C(CC[C@@]21C)[C@@]1(C)CC[C@H](O)C(C)(C)C1=C[C@@H]3O (some centres unmarked) [Compound 57] | 1750 nM |
| CC(C)CCC[C@@H](C)[C@H]1CC[C@H]2[C@@H]3CC=C4C(C)(C)[C@@H](O)CC[C@]4(C)[C@H]3CC[C@]12C [Compound 7, 4,4-Dimethyl cholesterol] | 14600 nM |
| CCC(O)CCC[C@@H](C)C1CCC2C3C(CC[C@@]21C)[C@@]1(C)CC[C@H](O)C(C)(C)C1=C[C@@H]3O (some centres unmarked) [Compound 87] | 1080 nM |
| C[C@H](CCC(C)(C)O)C1CCC2C3C(CC[C@@]21C)[C@@]1(C)CC[C@H](O)C(C)(C)C1=C[C@@H]3O (some centres unmarked) [Compound 56] | 52100 nM |
| COCCC[C@@H](C)C1CCC2C3C(CC[C@@]21C)[C@@]1(C)CC[C@H](O)C(C)(C)C1=C[C@@H]3O (some centres unmarked) [Compound 55] | 2290 nM |
| CC(O)CCCCC[C@@H](C)C1CCC2C3C(CC[C@@]21C)[C@@]1(C)CC[C@H](O)C(C)(C)C1=C[C@@H]3O (some centres unmarked) [Compound 124] | 920 nM |
| CC(O)CCCC[C@@H](C)C1CCC2C3C(CC[C@@]21C)[C@@]1(C)CC[C@H](O)C(C)(C)C1=C[C@@H]3O (some centres unmarked) [Compound 107] | 1290 nM |
| CC(C)CCC[C@@H](C)[C@H]1CCC2C3C(=NO)C=C4C(C)(C)[C@@H](O)CC[C@]4(C)C3CC[C@@]21C (some centres unmarked) [Compound 34] | 60800 nM |
| COC(=O)CCC[C@@H](C)C1CCC2C3C(CC[C@@]21C)[C@@]1(C)CC[C@H](O)C(C)(C)C1=C[C@@H]3O (some centres unmarked) [Compound 72] | 6770 nM |
| C[C@H](CCCCC(=O)O)C1CCC2C3C(CC[C@@]21C)[C@@]1(C)CC[C@H](O)C(C)(C)C1=C[C@@H]3O (some centres unmarked) [Compound 92] | 12300 nM |
| CCC(O)CC[C@@H](C)C1CCC2C3C(CC[C@@]21C)[C@@]1(C)CC[C@H](O)C(C)(C)C1=C[C@@H]3O (some centres unmarked) [Compound 64] | 3060 nM |
| C=CCC(O)(CC=C)CCCC[C@@H](C)C1CCC2C3C(CC[C@@]21C)[C@@]1(C)CC[C@H](O)C(C)(C)C1=C[C@@H]3O (some centres unmarked) [Compound 102] | 1920 nM |
| C=CCC(O)CCCC[C@@H](C)C1CCC2C3C(CC[C@@]21C)[C@@]1(C)CC[C@H](O)C(C)(C)C1=C[C@@H]3O (some centres unmarked) [Compound 109] | 910 nM |
| CCC(O)(CC)CCC[C@@H](C)C1CCC2C3C(CC[C@@]21C)[C@@]1(C)CC[C@H](O)C(C)(C)C1=C[C@@H]3O (some centres unmarked) [Compound 80] | 550 nM |
| CC(C)CCC[C@@H](C)[C@H]1CC[C@H]2[C@@H]3[C@@H](O)C=C4C(C)(C)[C@@H](O)CC[C@]4(C)[C@H]3CC[C@]12C [Compound 35, 4,4-Dimethyl 7β-hydroxyl cholesterol] | 3600 nM |
| C[C@H](CCCCCC(C)(C)O)C1CCC2C3C(CC[C@@]21C)[C@@]1(C)CC[C@H](O)C(C)(C)C1=C[C@@H]3O (some centres unmarked) [Compound 117] | 710 nM |
